The NIST ThermoML archive (doi:10.1016/j.jct.2016.03.029)
± gives the expanded uncertainty stated by the source.

Key:
[1] = refractive index (Na D-line) (dimensionless); conditions: 100 kPa, Liquid, Standard Abbe refractometry
[2] = 100 kPa, Liquid; for speed of sound: Frequency=3 MHz, Sing-around technique in a fixed-path interferometer; for mass density: Vibrating tube method
[3] = xn = mol fraction of the nth substance listed; conditions: 100 kPa, Liquid, x2 = 0; for speed of sound: Frequency=3 MHz, Sing-around technique in a fixed-path interferometer; for mass density: Vibrating tube method
[4] = refractive index (Na D-line) (dimensionless); xn = mol fraction of the nth substance listed; conditions: 100 kPa, Liquid, Standard Abbe refractometry, x2 = 0

CCCC[n+]1ccn(C)c1.O=S(=O)([N-]S(=O)(=O)C(F)(F)F)C(F)(F)F
Conditions	mass density, [2] [kg/m3]	refractive index, [1]	speed of sound, [2] [m/s]
298.15 K	1433.72 ± 1	1.42671 ± 0.00085	1227.9 ± 1.3
303.15 K	1428.92 ± 1	1.42522 ± 0.00085	1216.8 ± 1.3
308.15 K	1424.13 ± 1	1.42373 ± 0.00085	1205.8 ± 1.2
313.15 K	1419.36 ± 1	1.42225 ± 0.00085	1195 ± 1.2
318.15 K	1414.61 ± 1	1.42076 ± 0.00085	1184.2 ± 1.2
323.15 K	1409.88 ± 1	1.41923 ± 0.00085	1173.6 ± 1.2

CN1CCCC1=O [N-methylpyrrolidone]
Conditions	mass density, [2] [kg/m3]	refractive index, [1]	speed of sound, [2] [m/s]
298.15 K	1027.1 ± 1	1.46838 ± 0.00086	1543.8 ± 1.4
303.15 K	1022.64 ± 1	1.46626 ± 0.00086	1524.3 ± 1.4
308.15 K	1018.18 ± 1	1.46412 ± 0.00086	1505 ± 1.4
313.15 K	1013.72 ± 1	1.46199 ± 0.00086	1485.7 ± 1.4
318.15 K	1009.25 ± 1	1.45983 ± 0.00086	1466.7 ± 1.4
323.15 K	1004.79 ± 1	1.45771 ± 0.00086	1447.8 ± 1.4

CN1CCCC1=O [N-methylpyrrolidone] + CCCC[n+]1ccn(C)c1.O=S(=O)([N-]S(=O)(=O)C(F)(F)F)C(F)(F)F
Conditions	mass density, [3] [kg/m3]	refractive index, [4]	speed of sound, [3] [m/s]
298.15 K	1027.1 ± 1	1.46838 ± 0.00086	1543.8 ± 1.4
303.15 K	1022.64 ± 1	1.46626 ± 0.00086	1524.3 ± 1.4
308.15 K	1018.18 ± 1	1.46412 ± 0.00086	1505 ± 1.4
313.15 K	1013.72 ± 1	1.46199 ± 0.00086	1485.7 ± 1.4
318.15 K	1009.25 ± 1	1.45983 ± 0.00086	1466.7 ± 1.4
323.15 K	1004.79 ± 1	1.45771 ± 0.00086	1447.8 ± 1.4
